The structures appear in SMILES notation.

This experiment concerns Aβ40 in conditioned medium of APP containing cells. The experiment in a line: BACE Cell-Based Assay (Aβ40 sandwich ELISA, HEK-293 cells stably expressing APP). Conditions: Homo sapiens, HEK293, inhibition of Aβ 40 in conditioned media after 24 h. As to the method:
The cell-based assay measures inhibition or reduction of Aβ40 in conditioned medium of test compound treated APP containing cells.
Cells stably expressing Amyloid Precursor Protein (APP) were plated at a density of 40K cells/well in 96 well plates (Costar). The cells were cultivated for 24 h at 37° C. and 5% CO2 in DMEM supplemented with 10% FBS. The test compounds were then added to cells in 10-point dose response concentrations with the starting concentration being either 100 μM or 10 μM. The compounds were diluted from stock solutions in DMSO and the final DMSO concentration of the test compounds on cells was 0.1%. After 24 h of incubation with the test compounds the supernatant conditioned media was collected and the Aβ 40 levels were determined using a sandwich ELISA. The IC50 of the compound was calculated from the percent of control or percent inhibition of Aβ 40 as a function of the concentration of the test compound.
The sandwich ELISA to detect Aβ 40 was performed in 96 well microtiter plates, which were pre-treated with goat anti-rabbit IgG (Pierce). The capture and detecting antibody pair that were used to detect Aβ 40 from cell supernatants were affinity purified pAb40 (Biosource) and biotinylated 6E10 (Signet Labs Inc.), respectively. The optimal concentration for the pAb40 antibody was 3 μg/ml in Superblock/TBS (Pierce) that was supplemented with 0.05% Tween 20 (Sigma). Optimal concentration for the detection antibody 6E10-biotinylated was 0.5 μg/ml in Superblock/TBS (Pierce) that had been supplemented with 2% normal goat serum and 2% normal mouse serum.
Cellular supernatants were incubated with the capture antibody for 3 h at 4° C., followed by 3 wash steps in TBS-tween (0.05%). The detecting antibody incubation was for 2 h at 4° C., again followed by the wash steps as described previously. The final readout of the ELISA is Time-Resolved Fluorescence (counts per minute) using Delfia reagents Streptavidin-Europium and Enhancement solutions (Perkin Elmer) and the Victor 2 multilabel counter (Perkin Elmer).
(In an ELISA, binding on a coated surface is turned into a signal by an enzyme label.)
As a reminder, the IC50 is the concentration that inhibits the measured activity by half. Read a high IC50 as lower potency. Consider `CCc1ccc2c(c1)[C@@H](NC[C@@H](O)[C@H](Cc1ccccc1)NC(=O)c1ccnc(N3CCOCC3)c1)CC1(CCCC1)O2` [Example 169, N-((2S,3R)-4-((S)-6-ethyl-2,2-spirocyclopentylchroman-4-ylamino)-3-hydroxy-1-phenylbutan-2-yl)-2-morpholinoisonicotinamide], for which the IC50 was at most 5 µM.

Consider `Cc1cnc2c(c1)[C@@H](NC[C@@H](O)[C@H](Cc1cc(F)cc(F)c1)NC(=O)c1ccc(N3CCCC3=O)c(F)c1)CC1(CCC1)C2` [Example 146, N-((1S,2R)-1-((3,5-difluorophenyl)methyl)-2-hydroxy-3-(((5′S)-3′-methyl-5′,8′-dihydro-6′H-spiro[cyclobutane-1,7′-quinolin]-5′-yl)amino)propyl)-3-fluoro-4-(2-oxo-1-pyrrolidinyl)benzamide], for which the IC50 is at most 5 µM.

Turning to `CCc1ccc2c(c1)[C@@H](NC[C@@H](O)[C@H](Cc1ccccc1)NC(=O)c1ccnc(N3CCCCC3)c1)CC1(CCCC1)O2` [Example 167, N-((2S,3R)-4-((S)-6-ethyl-2,2-spirocyclopentylchroman-4-ylamino)-3-hydroxy-1-phenylbutan-2-yl)-2-(piperidin-1-yl)isonicotinamide], the IC50 was at most 5 µM.

The molecule `CCc1ccc2c(c1)[C@@H](NC[C@@H](O)[C@H](Cc1ccccc1)NC(=O)c1cncnc1)CC1(CCC1)O2` [Example 19, N-((2S,3R)-4-((S)-6-ethyl-2,2-spirocyclobutylchroman-4-ylamino)-3-hydroxy-1-phenylbutan-2-yl)pyrimidine-5-carboxamide] registered an IC50 of at most 5 µM.

On to `CCc1ccc2c(c1)[C@@H](NC[C@@H](O)[C@H](Cc1ccccc1)NC(=O)c1cc(N3CCCC3=O)ccc1OC)CC1(CCCC1)O2` [Example 30, N-((2S,3R)-4-((S)-6-ethyl-2,2-spirocyclopentylchroman-4-ylamino)-3-hydroxy-1-phenylbutan-2-yl)-2-methoxy-5-(2-oxopyrrolidin-1-yl)benzamide], for which the IC50 is at most 5 µM.

`CCc1ccc2c(c1)[C@@H](NC[C@@H](O)[C@H](Cc1ccccc1)NC(=O)c1cccc(-c3ccccn3)c1)CC1(CCCC1)O2` [Example 106] showed an IC50 of at most 5 µM.

In turn, `O=C(N[C@@H](Cc1ccccc1)[C@H](O)CN[C@H]1CC2(CCC2)Oc2ccc(Br)cc21)c1ccno1` [Example 162, N-((1S,2R)-3-(((4S)-6-bromo-3,4-dihydrospiro[chromene-2,1′-cyclobutan]-4-yl)amino)-2-hydroxy-1-(phenylmethyl)propyl)-5-isoxazolecarboxamide] showed an IC50 of at most 5 µM.

Source of the values: patent US7838676B2, “Beta-secretase modulators and methods of use” (Amgen Inc., priority 2005, dated 2010).
